From the kinase profiling compilation of Christmann-Franck et al. (2016)

molecular target: PRKX (human) (UniProt P51817); assay: radiometric filter-binding kinase assay, Kinase HotSpot; conditions: compound 0.5 µM; ATP 10 µM
Sequence (P51817 whole entry, looked up): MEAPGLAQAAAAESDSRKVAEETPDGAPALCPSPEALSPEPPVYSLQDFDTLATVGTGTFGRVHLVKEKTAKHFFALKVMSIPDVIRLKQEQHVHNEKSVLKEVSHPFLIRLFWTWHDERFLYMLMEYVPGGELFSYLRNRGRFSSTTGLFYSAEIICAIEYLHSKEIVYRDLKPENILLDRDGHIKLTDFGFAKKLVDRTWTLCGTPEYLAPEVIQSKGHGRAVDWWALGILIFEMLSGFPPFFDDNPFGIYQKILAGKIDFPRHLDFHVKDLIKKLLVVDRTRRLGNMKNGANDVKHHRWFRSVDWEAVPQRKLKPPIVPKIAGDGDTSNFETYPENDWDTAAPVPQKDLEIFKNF

In order of rising residual activity:
1. O=C1NC(=O)c2c1c1c3ccccc3[nH]c1c1[nH]c3cc(Br)ccc3c21  85.1%
2. N#C/C(=C1/Nc2ccccc2S1)c1ccnc(NCCc2cccnc2)n1  96.4%
3. O=c1[nH]c2ccccc2n1C1CCN(Cc2ccc(-c3nc4cc5[nH]cnc5cc4nc3-c3ccccc3)cc2)CC1  101%
4. COc1cc2c(N3CCN(C(=O)Nc4ccc(OC(C)C)cc4)CC3)ncnc2cc1OCCCN1CCCCC1  108%

molecular target: SIK2 (human) (UniProt Q9H0K1); assay: as above; conditions: compound 0.5 µM; ATP 10 µM

In order of rising residual activity:
1. O=C1NC(=O)c2c1c1c3ccccc3[nH]c1c1[nH]c3cc(Br)ccc3c21  80.4%
2. N#C/C(=C1/Nc2ccccc2S1)c1ccnc(NCCc2cccnc2)n1  96.4%
3. COc1cc2c(N3CCN(C(=O)Nc4ccc(OC(C)C)cc4)CC3)ncnc2cc1OCCCN1CCCCC1  98.9%
4. O=c1[nH]c2ccccc2n1C1CCN(Cc2ccc(-c3nc4cc5[nH]cnc5cc4nc3-c3ccccc3)cc2)CC1  114%

molecular target: EPHB1 (human) (UniProt P54762); assay: as above; conditions: compound 0.5 µM; ATP 10 µM
Sequence (P54762 whole entry, looked up): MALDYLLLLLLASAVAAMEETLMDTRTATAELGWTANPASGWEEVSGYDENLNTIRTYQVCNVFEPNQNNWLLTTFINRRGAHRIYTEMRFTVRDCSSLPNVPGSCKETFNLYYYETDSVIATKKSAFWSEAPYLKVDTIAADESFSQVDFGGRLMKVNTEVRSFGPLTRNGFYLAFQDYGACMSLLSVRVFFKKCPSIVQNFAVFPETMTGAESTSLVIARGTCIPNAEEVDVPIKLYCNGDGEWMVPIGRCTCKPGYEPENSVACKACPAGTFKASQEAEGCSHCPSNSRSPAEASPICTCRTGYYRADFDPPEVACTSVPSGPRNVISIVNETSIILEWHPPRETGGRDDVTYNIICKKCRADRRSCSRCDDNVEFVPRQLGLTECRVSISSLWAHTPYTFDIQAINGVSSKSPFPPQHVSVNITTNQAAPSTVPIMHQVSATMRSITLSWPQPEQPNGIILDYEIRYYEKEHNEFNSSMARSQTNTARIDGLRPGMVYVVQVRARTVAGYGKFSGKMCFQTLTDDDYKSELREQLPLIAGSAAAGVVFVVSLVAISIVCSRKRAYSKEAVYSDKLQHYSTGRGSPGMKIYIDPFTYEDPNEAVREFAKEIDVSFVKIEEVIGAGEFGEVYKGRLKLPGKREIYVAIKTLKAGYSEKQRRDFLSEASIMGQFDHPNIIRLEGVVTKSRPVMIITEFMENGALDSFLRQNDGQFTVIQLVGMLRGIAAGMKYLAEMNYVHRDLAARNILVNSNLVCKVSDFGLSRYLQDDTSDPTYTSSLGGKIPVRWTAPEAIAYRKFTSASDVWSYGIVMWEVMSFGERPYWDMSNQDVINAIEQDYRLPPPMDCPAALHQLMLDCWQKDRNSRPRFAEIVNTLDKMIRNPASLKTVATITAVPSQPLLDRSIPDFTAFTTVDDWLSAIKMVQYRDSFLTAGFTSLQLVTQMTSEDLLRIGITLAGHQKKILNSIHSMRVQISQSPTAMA

In order of falling residual activity:
1. O=c1[nH]c2ccccc2n1C1CCN(Cc2ccc(-c3nc4cc5[nH]cnc5cc4nc3-c3ccccc3)cc2)CC1  104%
2. COc1cc2c(N3CCN(C(=O)Nc4ccc(OC(C)C)cc4)CC3)ncnc2cc1OCCCN1CCCCC1  96.6%
3. O=C1NC(=O)c2c1c1c3ccccc3[nH]c1c1[nH]c3cc(Br)ccc3c21  95.5%
4. N#C/C(=C1/Nc2ccccc2S1)c1ccnc(NCCc2cccnc2)n1  90.9%

molecular target: TGFBR2 (human) (UniProt P37173); assay: as above; conditions: compound 0.5 µM; ATP 10 µM
Sequence (P37173 whole entry, looked up): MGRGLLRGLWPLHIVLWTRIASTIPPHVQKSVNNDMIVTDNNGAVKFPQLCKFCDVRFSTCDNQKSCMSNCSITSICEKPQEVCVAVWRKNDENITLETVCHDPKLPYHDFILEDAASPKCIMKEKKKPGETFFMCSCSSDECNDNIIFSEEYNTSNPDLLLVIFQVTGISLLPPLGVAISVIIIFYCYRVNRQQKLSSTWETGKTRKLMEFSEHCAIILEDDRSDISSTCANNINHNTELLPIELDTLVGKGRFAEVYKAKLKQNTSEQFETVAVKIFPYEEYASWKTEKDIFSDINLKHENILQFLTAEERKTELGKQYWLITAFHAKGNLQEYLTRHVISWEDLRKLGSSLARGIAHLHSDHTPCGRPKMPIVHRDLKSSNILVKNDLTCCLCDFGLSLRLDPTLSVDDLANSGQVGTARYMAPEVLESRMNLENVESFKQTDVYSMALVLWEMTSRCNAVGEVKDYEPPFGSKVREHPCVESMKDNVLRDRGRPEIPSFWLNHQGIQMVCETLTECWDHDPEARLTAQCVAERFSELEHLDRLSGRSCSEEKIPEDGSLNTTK

In order of rising residual activity:
1. O=C1NC(=O)c2c1c1c3ccccc3[nH]c1c1[nH]c3cc(Br)ccc3c21  61.8%
2. O=c1[nH]c2ccccc2n1C1CCN(Cc2ccc(-c3nc4cc5[nH]cnc5cc4nc3-c3ccccc3)cc2)CC1  95.5%
3. COc1cc2c(N3CCN(C(=O)Nc4ccc(OC(C)C)cc4)CC3)ncnc2cc1OCCCN1CCCCC1  102%
4. N#C/C(=C1/Nc2ccccc2S1)c1ccnc(NCCc2cccnc2)n1  102%

molecular target: ACVR1B (human) (UniProt P36896); assay: as above; conditions: compound 0.5 µM; ATP 10 µM
Sequence (P36896 whole entry, looked up): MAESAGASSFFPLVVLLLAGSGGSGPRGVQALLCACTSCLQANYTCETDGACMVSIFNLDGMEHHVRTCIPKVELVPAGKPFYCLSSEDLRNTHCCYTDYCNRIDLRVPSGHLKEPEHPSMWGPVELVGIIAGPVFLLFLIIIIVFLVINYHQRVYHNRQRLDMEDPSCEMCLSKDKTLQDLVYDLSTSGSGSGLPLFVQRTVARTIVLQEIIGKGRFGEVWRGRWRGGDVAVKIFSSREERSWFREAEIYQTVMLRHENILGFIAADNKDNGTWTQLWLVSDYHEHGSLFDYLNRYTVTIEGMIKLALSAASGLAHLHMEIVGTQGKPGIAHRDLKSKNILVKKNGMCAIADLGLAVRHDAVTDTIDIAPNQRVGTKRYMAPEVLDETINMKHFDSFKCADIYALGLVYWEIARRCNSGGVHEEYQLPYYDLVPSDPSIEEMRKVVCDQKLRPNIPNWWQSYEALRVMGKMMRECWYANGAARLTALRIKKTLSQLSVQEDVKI

In order of falling residual activity:
1. O=c1[nH]c2ccccc2n1C1CCN(Cc2ccc(-c3nc4cc5[nH]cnc5cc4nc3-c3ccccc3)cc2)CC1  111%
2. COc1cc2c(N3CCN(C(=O)Nc4ccc(OC(C)C)cc4)CC3)ncnc2cc1OCCCN1CCCCC1  101%
3. O=C1NC(=O)c2c1c1c3ccccc3[nH]c1c1[nH]c3cc(Br)ccc3c21  101%
4. N#C/C(=C1/Nc2ccccc2S1)c1ccnc(NCCc2cccnc2)n1  97.1%

molecular target: MLTK (human) (UniProt Q9NYL2); assay: as above; conditions: compound 0.5 µM; ATP 10 µM
Sequence (Q9NYL2 whole entry, looked up): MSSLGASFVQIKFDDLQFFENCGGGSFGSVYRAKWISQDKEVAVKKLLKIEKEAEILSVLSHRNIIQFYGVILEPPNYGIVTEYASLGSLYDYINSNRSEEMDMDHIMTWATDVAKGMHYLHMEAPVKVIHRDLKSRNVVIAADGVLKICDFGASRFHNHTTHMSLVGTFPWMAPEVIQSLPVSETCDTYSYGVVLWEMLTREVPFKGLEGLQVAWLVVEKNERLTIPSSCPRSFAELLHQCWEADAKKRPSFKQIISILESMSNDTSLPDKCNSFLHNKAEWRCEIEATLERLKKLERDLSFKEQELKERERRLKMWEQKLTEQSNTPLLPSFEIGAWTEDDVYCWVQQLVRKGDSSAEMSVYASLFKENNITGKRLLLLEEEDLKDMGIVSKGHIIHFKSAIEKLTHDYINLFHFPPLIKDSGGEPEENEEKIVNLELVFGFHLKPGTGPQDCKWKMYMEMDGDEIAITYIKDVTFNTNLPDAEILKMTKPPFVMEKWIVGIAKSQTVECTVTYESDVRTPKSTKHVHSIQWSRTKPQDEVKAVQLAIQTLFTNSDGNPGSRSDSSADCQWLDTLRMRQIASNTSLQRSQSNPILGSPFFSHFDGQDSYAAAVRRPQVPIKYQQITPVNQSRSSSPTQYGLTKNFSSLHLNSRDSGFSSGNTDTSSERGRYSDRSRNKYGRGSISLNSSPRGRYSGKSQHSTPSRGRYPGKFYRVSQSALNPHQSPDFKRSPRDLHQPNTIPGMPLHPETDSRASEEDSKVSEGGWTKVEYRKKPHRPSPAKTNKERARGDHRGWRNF

In order of falling residual activity:
1. O=c1[nH]c2ccccc2n1C1CCN(Cc2ccc(-c3nc4cc5[nH]cnc5cc4nc3-c3ccccc3)cc2)CC1  106%
2. COc1cc2c(N3CCN(C(=O)Nc4ccc(OC(C)C)cc4)CC3)ncnc2cc1OCCCN1CCCCC1  99.7%
3. N#C/C(=C1/Nc2ccccc2S1)c1ccnc(NCCc2cccnc2)n1  90.4%
4. O=C1NC(=O)c2c1c1c3ccccc3[nH]c1c1[nH]c3cc(Br)ccc3c21  88.8%

molecular target: HIPK3 (human) (UniProt Q9H422); assay: as above; conditions: compound 0.5 µM; ATP 10 µM
Sequence (Q9H422 whole entry, looked up): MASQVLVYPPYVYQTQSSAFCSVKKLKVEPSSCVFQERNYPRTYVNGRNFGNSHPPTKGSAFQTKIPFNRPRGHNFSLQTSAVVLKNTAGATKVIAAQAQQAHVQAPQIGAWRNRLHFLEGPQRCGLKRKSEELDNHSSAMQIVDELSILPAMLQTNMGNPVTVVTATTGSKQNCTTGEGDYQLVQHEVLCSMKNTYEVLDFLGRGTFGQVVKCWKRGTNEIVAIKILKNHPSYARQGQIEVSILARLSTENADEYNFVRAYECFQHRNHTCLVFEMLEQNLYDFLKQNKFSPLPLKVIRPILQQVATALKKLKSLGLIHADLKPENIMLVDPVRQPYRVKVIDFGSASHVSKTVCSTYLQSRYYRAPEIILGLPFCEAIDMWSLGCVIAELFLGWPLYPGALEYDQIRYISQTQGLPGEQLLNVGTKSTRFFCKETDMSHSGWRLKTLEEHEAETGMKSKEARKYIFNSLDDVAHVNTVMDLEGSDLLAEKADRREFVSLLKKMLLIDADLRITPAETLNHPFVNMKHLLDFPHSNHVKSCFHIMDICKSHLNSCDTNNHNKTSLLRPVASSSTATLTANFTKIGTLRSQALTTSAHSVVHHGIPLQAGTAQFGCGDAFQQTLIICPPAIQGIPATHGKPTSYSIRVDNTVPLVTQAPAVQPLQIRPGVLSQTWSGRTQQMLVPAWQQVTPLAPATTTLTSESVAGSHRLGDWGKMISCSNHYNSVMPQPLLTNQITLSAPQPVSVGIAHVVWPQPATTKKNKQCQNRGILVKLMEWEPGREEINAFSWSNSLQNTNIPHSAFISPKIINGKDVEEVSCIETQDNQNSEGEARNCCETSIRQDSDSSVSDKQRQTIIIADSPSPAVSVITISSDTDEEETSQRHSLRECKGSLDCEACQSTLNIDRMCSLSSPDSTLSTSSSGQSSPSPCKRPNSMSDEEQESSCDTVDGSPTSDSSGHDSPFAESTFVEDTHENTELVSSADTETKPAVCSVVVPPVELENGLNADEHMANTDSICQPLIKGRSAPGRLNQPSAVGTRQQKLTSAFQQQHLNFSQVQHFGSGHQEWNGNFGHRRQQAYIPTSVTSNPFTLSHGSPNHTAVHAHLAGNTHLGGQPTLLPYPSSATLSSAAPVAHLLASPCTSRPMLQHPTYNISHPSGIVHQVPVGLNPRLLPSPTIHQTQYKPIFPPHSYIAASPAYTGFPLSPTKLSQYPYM

In order of falling residual activity:
1. N#C/C(=C1/Nc2ccccc2S1)c1ccnc(NCCc2cccnc2)n1  106%
2. O=c1[nH]c2ccccc2n1C1CCN(Cc2ccc(-c3nc4cc5[nH]cnc5cc4nc3-c3ccccc3)cc2)CC1  102%
3. COc1cc2c(N3CCN(C(=O)Nc4ccc(OC(C)C)cc4)CC3)ncnc2cc1OCCCN1CCCCC1  101%
4. O=C1NC(=O)c2c1c1c3ccccc3[nH]c1c1[nH]c3cc(Br)ccc3c21  93.3%

molecular target: PAK4 (human) (UniProt O96013); assay: as above; conditions: compound 0.5 µM; ATP 10 µM
Sequence (O96013 whole entry, looked up): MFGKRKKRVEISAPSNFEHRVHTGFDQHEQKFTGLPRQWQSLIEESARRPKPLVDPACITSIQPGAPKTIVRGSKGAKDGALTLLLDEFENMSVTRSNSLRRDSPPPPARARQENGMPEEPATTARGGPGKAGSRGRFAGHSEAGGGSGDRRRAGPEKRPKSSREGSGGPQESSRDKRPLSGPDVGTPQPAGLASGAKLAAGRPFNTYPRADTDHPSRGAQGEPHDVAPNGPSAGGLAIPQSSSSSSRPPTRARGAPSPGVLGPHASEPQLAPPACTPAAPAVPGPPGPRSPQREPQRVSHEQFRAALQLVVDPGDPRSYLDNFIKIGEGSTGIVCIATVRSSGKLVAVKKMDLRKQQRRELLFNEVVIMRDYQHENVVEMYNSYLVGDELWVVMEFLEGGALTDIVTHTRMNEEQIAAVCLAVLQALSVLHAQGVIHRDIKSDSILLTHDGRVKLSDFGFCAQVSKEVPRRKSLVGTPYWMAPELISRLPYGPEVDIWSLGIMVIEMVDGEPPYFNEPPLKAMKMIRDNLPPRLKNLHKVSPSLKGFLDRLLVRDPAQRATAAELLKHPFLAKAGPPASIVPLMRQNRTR

In order of rising residual activity:
1. N#C/C(=C1/Nc2ccccc2S1)c1ccnc(NCCc2cccnc2)n1  91.3%
2. O=C1NC(=O)c2c1c1c3ccccc3[nH]c1c1[nH]c3cc(Br)ccc3c21  96.4%
3. O=c1[nH]c2ccccc2n1C1CCN(Cc2ccc(-c3nc4cc5[nH]cnc5cc4nc3-c3ccccc3)cc2)CC1  102%
4. COc1cc2c(N3CCN(C(=O)Nc4ccc(OC(C)C)cc4)CC3)ncnc2cc1OCCCN1CCCCC1  103%

molecular target: NEK1 (human) (UniProt Q96PY6); assay: as above; conditions: compound 0.5 µM; ATP 10 µM

In order of rising residual activity:
1. N#C/C(=C1/Nc2ccccc2S1)c1ccnc(NCCc2cccnc2)n1  70%
2. O=C1NC(=O)c2c1c1c3ccccc3[nH]c1c1[nH]c3cc(Br)ccc3c21  89.1%
3. O=c1[nH]c2ccccc2n1C1CCN(Cc2ccc(-c3nc4cc5[nH]cnc5cc4nc3-c3ccccc3)cc2)CC1  101%
4. COc1cc2c(N3CCN(C(=O)Nc4ccc(OC(C)C)cc4)CC3)ncnc2cc1OCCCN1CCCCC1  119%

molecular target: SYK (human) (UniProt P43405); assay: as above; conditions: compound 0.5 µM; ATP 10 µM

In order of falling residual activity:
1. COc1cc2c(N3CCN(C(=O)Nc4ccc(OC(C)C)cc4)CC3)ncnc2cc1OCCCN1CCCCC1  102%
2. O=c1[nH]c2ccccc2n1C1CCN(Cc2ccc(-c3nc4cc5[nH]cnc5cc4nc3-c3ccccc3)cc2)CC1  97.9%
3. N#C/C(=C1/Nc2ccccc2S1)c1ccnc(NCCc2cccnc2)n1  92.4%
4. O=C1NC(=O)c2c1c1c3ccccc3[nH]c1c1[nH]c3cc(Br)ccc3c21  58.3%

molecular target: FGFR1 (human) (UniProt P11362); assay: as above; conditions: compound 0.5 µM; ATP 10 µM

For COc1cc2c(N3CCN(C(=O)Nc4ccc(OC(C)C)cc4)CC3)ncnc2cc1OCCCN1CCCCC1, the residual activity was 101%.
